Assay results as given in patent US10392368B2, “Pyrazolo and triazolo bicyclic compounds as JAK kinase inhibitors” (THERAVANCE BIOPHARMA R&D IP, LLC, priority 2017, dated 2019).

Tests used:
[1] = Colon and plasma mouse pharmacokinetics; type: in vivo; settings: male Balb/c mice, 10 mg/kg PO; 0.5, 2 and 6 hours
Method: 6 male Balb/c mice were administered 10 mg/kg of compound in 1% HPMC+0.1% Tween-80 by PO administration. At 0.5, 2 and 6 hours after dose administration, animals were anesthetized, and terminal blood samples were collected by cardiac puncture, followed by collection of colon contents and colon tissue.
Blood samples were collected into K2EDTA and stored on wet ice until processed to plasma by centrifugation (12000 rpm at 4° C.). Plasma samples were transferred to cluster tubes and placed on dry ice prior to freezer storage. The colon contents from each animal were collected at each terminal blood collection time point. The colon tissues were flushed with saline and patted dry. The colon and colon content tissues were homogenized using sterile water containing 0.1% formic acid 9:1 (water:tissue, v/w). The homogenized tissues and colon contents were transferred to cluster tubes and placed on dry ice prior to freezer storage. All samples were analyzed using LC/MS/MS against analytical standards.
The composite pharmacokinetic parameters of the compounds were determined by non-compartmental analysis using Phoenix WinNonlin Version 6 (Certara, St. Louis, Mo.) and using mean values from 2 animals/time point. For plasma concentrations below the quantification limit (BQL), the lowest concentration measurable or the BLOQ (below limit of quantification) was used.
A colon to plasma ratio was determined as the ratio of the colon AUC to the plasma AUC.

splenic NK cells = test: Immunosuppression effects in mouse splenic natural killer (NK) cells; settings: positive control, 30 mg/kg PO, BID
Method: Select compounds were assessed in the mouse splenic cell model following the same treatment paradigm used in the oxazolone-induced colitis model (assay 8).
Adult male Balb/C mice from Harlan were used for the study. The test compound and a Jak3 covalent inhibitor standard 2-propen-1-one, 1-[(2S,5R)-2-methyl-5-(7H-pyrrolo[2,3-d]pyrimidin-4-ylamino)-1-piperidinyl] (30 mg/kg, BID) as a positive control, were dosed orally for three days to naïve mice. Spleens were harvested up to 4 hours post last dose and crushed immediately for cell subtype staining. Prior to fixation, fluorophore-labelled antibodies for CD19 (FITC; B cells), CD3e (PE; pan T cells) and CD49e (APC; NK cells) were incubated with splenocyte samples from each animal to allow for simultaneous, multiple subtype % analysis on the flow cytometer. The number of total spleen cells for each animal was measured by Scepter™ 2.0 Handheld Automated Cell Counter.
The absolute number of lymphocyte subtype population (e.g., splenic B, T and NK cells) was calculated from the percentage of each subtype times the total spleen cells for each animal. A one-way ANOVA, with Fisher's LSD post hoc test, was used to compare the splenic lymphocytes number of the vehicle and test compound groups. The a level was set at p<0.05. Data were presented as the mean±SEM for each group.

[2] = system: IL-2 induced pSTAT5 in thymus; test: Systemic target engagement: murine model of IL-2 induced pSTAT5 induction in thymus; type: in vivo, mouse; settings: PO, 10, 30 and 50 mg/kg
Description: IL-2 is an important cytokine underlying the pathophysiology of gastro-intestinal diseases such as […] bowel disease (IBD; Guan and Zhang. Mediators Inflamm, 2017; 4810258). IL-2 binds to cell surface receptors activating members of the Janus family of kinases (JAK), specifically JAK3, which then phosphorylates STAT5 and subsequently activates further transcription pathways. In this model, a dose of IL-2 was delivered systemically to mice to induce the phosphorylation of STAT5 (pSTAT5) which was then measured as the endpoint.
Adult male Balb/c mice from Harlan were used in the assay. Animals were administered test compound via oral gavage (PO, 10 or 30 mg/kg for single dose studies; 10-60 mg/kg for dose response studies) on the afternoon of the day prior to study and then in the morning on the day of study. Two hours after the second PO dose administration, mice were injected intraperitoneally (i.p.) with 100 μl of an appropriate IL-2 dose (for a total of 1-5 μg/mouse depending upon IL-2 batch; R&D Systems). 90-120 minutes after IL-2 insult, thymus samples were harvested.

Which “colon to plasma ratio (colon AUC to plasma AUC)” value [1] does the source give for C=CC(=O)N1C[C@H](Nc2ncnc3[nH]ccc23)CC[C@@H]1C [PF-06651600, 2-propen-1-one, 1-[(2S,5R)-2-methyl-5-(7H-pyrrolo[2,3-d]pyrimidin-4-ylamino)-1-piperidinyl], reference compound] here?
The value was 2.8.

What about the “Splenic NK cell counts” value (splenic NK cells) of the same compound?
The value was “significantly decreased”.

What about the “inhibition of pSTAT5 induction in the thymus” value [2] of the same compound?
The value was “significant inhibition”.
